# ChEMBL document CHEMBL1137073, “Development of irreversible diphenyl phosphonate inhibitors for urokinase plasminogen activator” (J Med Chem, 2004)
# What was measured:
# [1] = biological target: T1, Tissue-type plasminogen activator (Homo sapiens, UniProt P00750); conditions: at 250 µM
# Target sequence in this assay (P00750 36-562 limits assumed): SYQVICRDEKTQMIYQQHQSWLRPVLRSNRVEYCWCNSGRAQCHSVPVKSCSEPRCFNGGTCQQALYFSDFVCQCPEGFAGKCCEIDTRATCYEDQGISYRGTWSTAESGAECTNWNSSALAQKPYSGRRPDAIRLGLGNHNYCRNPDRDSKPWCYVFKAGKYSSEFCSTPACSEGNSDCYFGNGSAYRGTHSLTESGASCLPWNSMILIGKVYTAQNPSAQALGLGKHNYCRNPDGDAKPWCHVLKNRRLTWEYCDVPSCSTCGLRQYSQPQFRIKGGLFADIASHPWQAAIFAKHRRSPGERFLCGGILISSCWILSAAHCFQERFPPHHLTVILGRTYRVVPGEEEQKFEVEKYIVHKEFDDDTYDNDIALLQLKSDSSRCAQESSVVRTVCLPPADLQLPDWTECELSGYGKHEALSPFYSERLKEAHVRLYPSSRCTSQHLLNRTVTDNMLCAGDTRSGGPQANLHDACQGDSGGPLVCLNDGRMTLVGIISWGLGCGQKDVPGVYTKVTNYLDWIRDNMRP
# Description: (§2) Inhibitory activity against Tissue type plasminogen activator at a concentration of 250 uM
# Coagulation factor X [2] = biological target: T2, Coagulation factor X (Homo sapiens, UniProt P00742); conditions: at 250 µM
# Description: Inhibitory activity against Coagulation factor Xa at a concentration of 250 uM
# Prothrombin [3] = biological target: T3, Prothrombin (Homo sapiens, UniProt P00734); conditions: at 250 µM
# Description: Inhibitory activity against thrombin at a concentration of 250 uM
# Plasminogen [4] = biological target: T4, Plasminogen (Homo sapiens, UniProt P00747); conditions: at 250 µM
# T4 sequence (P00747 97-580 limits assumed): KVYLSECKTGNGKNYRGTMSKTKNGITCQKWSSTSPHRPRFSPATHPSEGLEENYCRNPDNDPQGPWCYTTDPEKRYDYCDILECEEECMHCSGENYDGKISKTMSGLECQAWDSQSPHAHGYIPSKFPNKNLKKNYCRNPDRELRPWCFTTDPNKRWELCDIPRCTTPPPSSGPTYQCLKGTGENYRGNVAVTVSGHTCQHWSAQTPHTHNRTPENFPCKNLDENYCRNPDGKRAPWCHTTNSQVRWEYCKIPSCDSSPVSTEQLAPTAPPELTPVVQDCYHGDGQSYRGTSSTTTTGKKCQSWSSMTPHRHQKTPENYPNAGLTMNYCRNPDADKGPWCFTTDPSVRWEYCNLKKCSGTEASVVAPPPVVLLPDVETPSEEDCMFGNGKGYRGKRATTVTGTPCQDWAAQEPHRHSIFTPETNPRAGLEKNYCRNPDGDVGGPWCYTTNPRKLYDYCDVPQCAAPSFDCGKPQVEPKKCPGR
# T4 sequence (P00747 581-810 limits assumed): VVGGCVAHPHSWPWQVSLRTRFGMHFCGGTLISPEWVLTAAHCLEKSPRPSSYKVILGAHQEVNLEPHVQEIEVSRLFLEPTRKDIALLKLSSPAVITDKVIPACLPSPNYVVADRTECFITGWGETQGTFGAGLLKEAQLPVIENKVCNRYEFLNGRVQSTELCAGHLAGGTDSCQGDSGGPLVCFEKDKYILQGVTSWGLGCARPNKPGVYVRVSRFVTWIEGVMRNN
# Description: Inhibitory activity against plasmin at a concentration of 250 uM
# [5] = biological target: T5, Urokinase-type plasminogen activator (Homo sapiens, UniProt P00749); experiment: (§1) Inhibitory activity against Urokinase-type plasminogen activator
# [6] = biological target: T5, Urokinase-type plasminogen activator; experiment: as §1; remark: listed apart in the source
# [7] = biological target: T1, Tissue-type plasminogen activator; experiment: Inhibitory activity against Tissue type plasminogen activator
# Target sequence in this assay (P00750 whole entry): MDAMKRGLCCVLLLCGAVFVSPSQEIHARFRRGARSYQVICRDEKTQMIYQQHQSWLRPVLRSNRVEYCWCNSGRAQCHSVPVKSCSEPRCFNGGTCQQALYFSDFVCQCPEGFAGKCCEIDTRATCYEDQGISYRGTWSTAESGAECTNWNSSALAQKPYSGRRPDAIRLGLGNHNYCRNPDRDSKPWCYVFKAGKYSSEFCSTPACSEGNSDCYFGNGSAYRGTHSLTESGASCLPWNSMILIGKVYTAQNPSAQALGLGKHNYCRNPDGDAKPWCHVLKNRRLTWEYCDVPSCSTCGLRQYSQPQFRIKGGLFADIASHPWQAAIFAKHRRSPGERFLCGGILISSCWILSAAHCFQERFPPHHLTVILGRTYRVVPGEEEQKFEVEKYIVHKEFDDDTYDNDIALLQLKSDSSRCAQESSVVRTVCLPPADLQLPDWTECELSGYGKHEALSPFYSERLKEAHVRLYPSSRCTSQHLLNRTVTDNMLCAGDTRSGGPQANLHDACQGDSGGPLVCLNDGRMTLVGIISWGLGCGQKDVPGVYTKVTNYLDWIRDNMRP
# Prothrombin [8] = biological target: T3, Prothrombin; experiment: Inhibitory activity against thrombin
# [9] = biological target: T1, Tissue-type plasminogen activator; experiment: Inhibitory activity against Tissue type plasminogen activator at a concentration of 2.5 uM
# Target sequence in this assay (P00750 36-562 limits assumed): as the sequence (P00750 36-562 limits assumed) above
# Plasminogen [10] = biological target: T4, Plasminogen; experiment: Inhibitory activity against plasmin
# Coagulation factor X [11] = biological target: T2, Coagulation factor X; experiment: Inhibitory activity against Coagulation factor Xa
# Prothrombin [12] = biological target: T3, Prothrombin; experiment: Inhibitory activity against thrombin at a concentration of 2.5 uM
# [13] = biological target: T1, Tissue-type plasminogen activator; experiment: Inhibitory activity against Tissue type plasminogen activator at a concentration of
# Target sequence in this assay (P00750 36-562 limits assumed): as above
# [14] = biological target: T1, Tissue-type plasminogen activator; conditions: at 250 µM; remark: listed apart in the source
# Target sequence in this assay (P00750 36-562 limits assumed): as above
# Description: as §2
# T2 sequence (P00742 41-179 limits assumed): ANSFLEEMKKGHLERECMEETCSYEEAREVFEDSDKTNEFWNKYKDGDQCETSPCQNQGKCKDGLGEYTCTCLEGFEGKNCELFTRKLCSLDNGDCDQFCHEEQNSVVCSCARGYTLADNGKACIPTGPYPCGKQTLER
# T2 sequence (P00742 235-488 limits assumed): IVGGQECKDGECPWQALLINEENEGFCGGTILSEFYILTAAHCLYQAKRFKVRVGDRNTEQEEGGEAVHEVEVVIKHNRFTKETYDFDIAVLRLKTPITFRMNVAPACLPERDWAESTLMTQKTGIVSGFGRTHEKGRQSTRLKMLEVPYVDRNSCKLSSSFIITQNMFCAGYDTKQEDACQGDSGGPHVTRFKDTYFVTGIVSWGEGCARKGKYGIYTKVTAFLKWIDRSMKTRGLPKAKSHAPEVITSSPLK
Structure (SMILES),inhibition (Coagulation factor X [2]),inhibition (Plasminogen [4]),IC50 [5],K app [6],further results
C[C@H](NC(=O)[C@@H](CO)NC(=O)OCc1ccccc1)C(=O)NC(c1ccc(CN=C(N)N)cc1)P(=O)(Oc1ccccc1)Oc1ccccc1 (some centres undefined),44%,45%,8.4 µM,3.3 M⁻¹ s⁻¹,inhibition [1]: 43%; inhibition (Prothrombin [3]): 20%
C[C@H](NC(=O)[C@@H](CO)NC(=O)OCc1ccccc1)C(=O)NC(c1ccc(N=C(N)N)cc1)P(=O)(Oc1ccccc1)Oc1ccccc1 (some centres undefined),–,–,1.6 µM,–,–
C[C@H](NC(=O)[C@@H](CO)NC(=O)OCc1ccccc1)C(=O)NC(CCNC(=N)N)P(=O)(Oc1ccccc1)Oc1ccccc1 (some centres undefined),–,–,4.1 µM,–,–
N=C(N)NC(=O)c1nc(Cl)c(N)nc1N [AMILORIDE],17%,23%,–,–,IC50 [7]: > 250 µM; IC50 (Prothrombin [8]): > 250 µM
C[C@H](NC(=O)[C@@H](CO)NC(=O)OCc1ccccc1)C(=O)NC(CCCN=C(N)N)P(=O)(Oc1ccccc1)Oc1ccccc1 (some centres undefined),–,–,–,–,inhibition [9]: 50%
C[C@H](NC(=O)[C@@H](CO)NC(=O)OCc1ccccc1)C(=O)NC(CCCNC(=N)N)P(=O)(Oc1ccccc1)Oc1ccccc1 (some centres undefined),–,–,0.061 µM,–,IC50 (Plasminogen [10]): 10.8 µM; IC50 (Coagulation factor X [11]): 65 µM; IC50 (Prothrombin [8]): 0.5 µM
C[C@H](NC(=O)[C@@H](CO)NC(=O)OCc1ccccc1)C(=O)NC(Cc1ccc(N=C(N)N)cc1)P(=O)(Oc1ccccc1)Oc1ccccc1 (some centres undefined),–,–,0.057 µM,–,IC50 (Plasminogen [10]): 22 µM; IC50 [7]: 14 µM; IC50 (Coagulation factor X [11]): 79 µM; IC50 (Prothrombin [8]): 30 µM
C[C@H](NC(=O)[C@@H](CO)NC(=O)OCc1ccccc1)C(=O)NC([C@H]1CC[C@H](CN=C(N)N)CC1)P(=O)(Oc1ccccc1)Oc1ccccc1 (some centres undefined),77%,–,1.1 µM,1.4 M⁻¹ s⁻¹,inhibition [1]: 41%; IC50 (Plasminogen [10]): 32.2 µM; inhibition (Prothrombin [3]): 40%
C[C@H](NC(=O)[C@@H](CO)NC(=O)OCc1ccccc1)C(=O)NC(CCCCN=C(N)N)P(=O)(Oc1ccccc1)Oc1ccccc1 (some centres undefined),–,–,0.25 µM,3.8 M⁻¹ s⁻¹,inhibition [9]: 19%; inhibition (Prothrombin [12]): 12%
C[C@H](NC(=O)[C@@H](CO)NC(=O)OCc1ccccc1)C(=O)NC(c1ccc(NC(=N)N)cc1)P(=O)(Oc1ccccc1)Oc1ccccc1 (some centres undefined),56%,46%,–,2 M⁻¹ s⁻¹,inhibition [13]: 53%; inhibition (Prothrombin [12]): 44%
C[C@H](NC(=O)[C@@H](CO)NC(=O)OCc1ccccc1)C(=O)NC(Cc1ccc(NC(=N)N)cc1)P(=O)(Oc1ccccc1)Oc1ccccc1 (some centres undefined),–,–,–,6.7 M⁻¹ s⁻¹,–
C[C@H](NC(=O)[C@@H](CO)NC(=O)OCc1ccccc1)C(=O)NC(CCN=C(N)N)P(=O)(Oc1ccccc1)Oc1ccccc1 (some centres undefined),6%,15%,–,1.4 M⁻¹ s⁻¹,inhibition (Prothrombin [3]): 96%; inhibition (Prothrombin [12]): 10%; inhibition [14]: 46%
